Data on ten compounds can be found in patent US20050282818A1, “Ubiquitin ligase inhibitors” (Rigel Pharmaceuticals, Inc., priority 2004, published 2005).

One test has as its target T1, TRAF6/Uev1A/Ubc13 (Homo sapiens, UniProt Q9Y4K3).
T1 sequence (Q9Y4K3 1-522): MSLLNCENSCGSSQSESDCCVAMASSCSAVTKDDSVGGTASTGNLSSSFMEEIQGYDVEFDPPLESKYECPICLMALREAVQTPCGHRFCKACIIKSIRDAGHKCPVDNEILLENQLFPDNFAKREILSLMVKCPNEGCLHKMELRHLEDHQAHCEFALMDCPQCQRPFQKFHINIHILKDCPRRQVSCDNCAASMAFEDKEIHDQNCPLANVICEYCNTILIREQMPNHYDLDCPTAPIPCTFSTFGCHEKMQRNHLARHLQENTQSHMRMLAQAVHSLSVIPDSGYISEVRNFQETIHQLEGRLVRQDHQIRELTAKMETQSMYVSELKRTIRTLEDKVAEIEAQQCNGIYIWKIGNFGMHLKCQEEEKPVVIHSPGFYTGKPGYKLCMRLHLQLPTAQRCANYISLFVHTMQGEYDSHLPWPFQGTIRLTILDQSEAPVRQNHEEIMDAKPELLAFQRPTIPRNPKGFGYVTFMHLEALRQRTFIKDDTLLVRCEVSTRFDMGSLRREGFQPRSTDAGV
In words: TRAF6/Uev1A/Ubc13 plate-based ubiquitin ligase assay. The test is classed as biochemical. The essentials: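 Ligase activity was read as luminescence from anti-Flag/HRP detection of Flag-ubiquitin bound to casein-blocked Ni-plates alongside His-ubiquitin after a 1 h room-temperature reaction. Buffer: 62.5 mM Tris pH 7.5, 6.25 mM MgCl2, 1.0 mM DTT, 2 μM ATP; E1, Uev1a/Ubc13 and TRAF6 added last to start. IC50s derived across compound concentrations.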

Test [1] deals with ICAM-1 expression in A549 cells. In words: ICAM assay (IL-1 induced ICAM-1/CD54 expression in A549 cells). It is filed as cell-based, human. To be noted: Homo sapiens, A549, ICAM assay. The essentials: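 Luminescent immunostaining (anti-CD54, then anti-mouse IgG, 1 h) quantifies ICAM-1 on A549 cells induced 4 h at 37° C by IL-1 (4 μl of 25 ng/ml added). Compound is added 1 h before the cytokine to cells plated overnight at 10,000 per well.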

The target in a further test is T2, ROC1/CUL1 (Homo sapiens, UniProt P62877+Q13616).
T2 construct: made in house
The test is described as follows: ROC1/CUL1 ubiquitin ligase assay (SCF assay). It is filed as biochemical. The protocol: Inhibition of ubiquitin ligase activity of E1+E2+E3 was measured using the protocol as described in WO 01/75145 with E3 as the ROC1/CUL1, ROC1/CUL2, or ROC2/CUL5 complex.
The wells of nickel-substrate 96-well plates (Pierce Chemical) are blocked with 100 μl of 1 casein/phosphate buffered saline (PBS) for 1 hour at room temperature, then washed with 200 μl of PBST (0.1% Tween-20 in PBS) 3 times. To each well is added the following Flag-ubiquitin (see above) reaction solution: 62.5 mM Tris pH 7.5, 6.25 mm MgCl2, 0.75 mM DTT, 2.5 mM ATP, 2.5 mM NaF1, 2.5 nM Okadaic acid, 100 ng Flag-ubiquitin (made as described above).
The buffer solution is brought to a final volume of 80 μl with Milipore-filtered water, followed by the addition of 10 μl DMSO.
To the above solution is then added 10 μl of ubiquitination enzymes in 20 mM Tris buffer, pH 7.5, and 5% glycerol. E2-Ubch5c and E3-His ROC1/Cul1, ROC1/CUL2, and ROC2/CUL5 are made as described in WO 01/75145. E1 is obtained commercially (Affiniti Research Products, Exeter, U. K.). The following amounts of each enzyme are used for these assays: 5 ng/well of E1; […] E2; and 100 ng/well His-E3. Varying amounts of compounds according to the invention are added and the reaction allowed to proceed at room temperature for 1 hour.
Following the ubiquitination reaction, the wells are washed with 200 μl of PBST 3 times. For measurement of the enzyme-bound ubiquitin, 100 gel of Mouse anti-Flag (1:10,000) and anti-Mouse Ig-HRP (1:15, 000) in PBST are added to each well and allowed to incubate at room temperature for 1 hour. The wells are then washed with 200 μl of PBST 3 times, followed by the addition of 100 μl of luminol substrate (1/5 dilution). Luminescence for each well is then measured using a fluorimeter.
Table 2 below illustrates the inhibitory activity of the compounds of the invention determined by the TRAF6/Uev1A/Ubc13 assay as well as in the ICAM, APC and the ROC1/CUL1 Ubiquitin Ligase Assay (SCF Assay). The IC50 values were determined using a various concentrations of the compounds.

For the next test, the target named is APC11/APC2 (Homo sapiens, UniProt Q9NYG5+Q9UJX6). In words: APC-11/APC-2 ligase assay (APC auto ubiquitination). The test is classed as biochemical. To be noted: APC assay. In a few lines: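 His-tagged APC was captured on nickel plates with human E1 (5 ng/well), UbcH5c (20 ng/well), APC (100 ng/well) and Flag-ubiquitin (100 ng/well) in a Tris pH 7.6 reaction buffer containing 2.5 mM ATP, for 1 hour at room temperature. Read-out was anti-Flag/HRP chemiluminescence. IC50 was set against a DMSO control, typically from 6 or 8 concentrations.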

In a further test the test system is A549 cells. In words: Cell proliferation PAD assay, A549. The test is classed as cell-based. Particulars: Homo sapiens, 3pt, 48 hours, read-out: A549 3pt. In a few lines: (§1)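 Proliferation was scored by DAPI imaging of fixed cells, counting live, apoptotic and dead cells, after 48 h compound exposure at 37 °C, 5% CO2. Compound, dosed in duplicate 24 h post-plating (2,000 cells/well), came from 6.3-fold dilutions of a 10 mM stock diluted 500-fold.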

A further test has as its system H1299 cells. The test is described as follows: Cell proliferation PAD assay, H1299. The test is classed as cell-based. Particulars: Homo sapiens, NCI-H1299, 3pt, 48 hours, read-out: H1299 3pt. The essentials: as §1
The next test has as its system OVCAR8 cells. In words: Cell proliferation PAD assay, OVCAR8. The test is classed as cell-based. Particulars: Homo sapiens, OVCAR-8, 6pt, 48 hours. How it is done:
(§2) Cell lines used are available from American Type Culture Collection (ATCC), for example, cell cultures containing A549 (ATCC# CCL-185), HeLa (ATCC# CCL-2), HCT116 ATTC# CCL-247), and H1299 (ATCC# CRL-5803) cells were maintained in T175 flasks following the ATCC recommended media and handling procedures. […] A 20,000 cells/ml solution was made for plating. Cells were plated in black Packard 96 well plates by placing 100 μl per well (2,000 cells per well). […] The definitions of the cell types used are as follows: A549 is lung carcinoma; HI 299 is non-small cell lung carcinoma; HI 155 is non-small cell lung carcinoma; AsPC-1 is pancreatic adenocarcinoma; Caov-3 is ovarian adenocarcinoma; COLO 205 is colorectal adenocarcinoma; DLD-1 colorectal adenocarcinoma; HCT116 is colorectal carcinoma; DU 145 is prostate carcinoma; ES-2 is ovarian clear cell carcinoma; H460 is large cell lung carcinoma; HELA is cervical adenocarcinoma; MIA PaCa-2 is pancreatice carcinoma; OVCAR-3 is ovarian adenocarcinoma; OVCAR8 is ovarian carcinoma; PC3 is prostate adenocarcinoma; SK-OV-3 is ovarian adenocarcinoma; SU86.86 is pancreatic carcinoma; TOV-21G is avarian clear cell carcinoma; U2OS is bone osteosarcoma; is ASPC-I is pancreatic adenocarcinoma; BXPC-3 is pabcreatic adenocarcinoma; HL60 is promyeloblast promyelocytic leukemia; K562 is bone marrow chronic myelogenous leukemia; L1210 is mouse lymphocytic leukemia; MOLT3 is T lymphoblast acute lymphoblastic leukemia; MOLT4 is T lymphoblast acute lymphoblastic leukemia; SW620 is colorectal adenocarcinoma; THP-1 is monocyte acute monocytic leukemia; U937 is histiocytic lymphoma; and UACC-257 is melanoma.
(§3) Compounds and additional media were added 24 hours after cell plating. […] All compound testing was done in duplicate using 6.3 fold dilutions starting with 10 mM. […] Taxol and at least one additional control were run on all plates. Three microliters of the compound master plate were added to deep well blocks containing 750 μl of RPMI media. One hundred microliters were transferred from the compound/media deep well blocks to the plated cells resulting in a 500 fold dilution of the compounds. Cells were grown at 37° C., 5% CO2 for 48 hours.
(§4) Cells to be analyzed by photography were fixed and stained. One hundred microliters of media were removed and 100 μl of 9.3% formamide was added to each well. Plates were left on the benchtop for 45 minutes. A staining solution containing 1.55 μl of 1 mg/ml DAPI added to 18.75 ml PBS was warmed for 15 minutes at 37° C. The cells were aspirated prior to washing with 100 μl of PBS. Seventy microliters of PBS were aspirated and 170 μl of the DAPI solution were added to each well of fixed cells. Plates were left at room temperature for one hour then aspirated and washed twice with 100 μl of PBS. The stained cells were left at 4° C. for a minimum of 16 hours before photographic analysis with Array Scan II (Cellomics). Analysis of the photographic images to determine numbers of live cells (proliferation), apoptotic cells and dead cells, were according to the methods described in U.S. Utility patent application Ser. No. 10/652,440, which incorporated herein in its entirety.

Another test deals with UACC-257 cells. In words: Cell proliferation PAD assay, UACC-257. To be noted: Homo sapiens, UACC257 cells, 6pt, 48 hours. The test is classed as cell-based. How it is done: as §2, §3, §4

T2 sequence (P62877 whole entry): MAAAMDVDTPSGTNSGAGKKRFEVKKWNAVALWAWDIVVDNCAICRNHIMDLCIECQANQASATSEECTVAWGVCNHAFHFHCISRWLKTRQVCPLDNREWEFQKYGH
T2 sequence (Q13616 whole entry): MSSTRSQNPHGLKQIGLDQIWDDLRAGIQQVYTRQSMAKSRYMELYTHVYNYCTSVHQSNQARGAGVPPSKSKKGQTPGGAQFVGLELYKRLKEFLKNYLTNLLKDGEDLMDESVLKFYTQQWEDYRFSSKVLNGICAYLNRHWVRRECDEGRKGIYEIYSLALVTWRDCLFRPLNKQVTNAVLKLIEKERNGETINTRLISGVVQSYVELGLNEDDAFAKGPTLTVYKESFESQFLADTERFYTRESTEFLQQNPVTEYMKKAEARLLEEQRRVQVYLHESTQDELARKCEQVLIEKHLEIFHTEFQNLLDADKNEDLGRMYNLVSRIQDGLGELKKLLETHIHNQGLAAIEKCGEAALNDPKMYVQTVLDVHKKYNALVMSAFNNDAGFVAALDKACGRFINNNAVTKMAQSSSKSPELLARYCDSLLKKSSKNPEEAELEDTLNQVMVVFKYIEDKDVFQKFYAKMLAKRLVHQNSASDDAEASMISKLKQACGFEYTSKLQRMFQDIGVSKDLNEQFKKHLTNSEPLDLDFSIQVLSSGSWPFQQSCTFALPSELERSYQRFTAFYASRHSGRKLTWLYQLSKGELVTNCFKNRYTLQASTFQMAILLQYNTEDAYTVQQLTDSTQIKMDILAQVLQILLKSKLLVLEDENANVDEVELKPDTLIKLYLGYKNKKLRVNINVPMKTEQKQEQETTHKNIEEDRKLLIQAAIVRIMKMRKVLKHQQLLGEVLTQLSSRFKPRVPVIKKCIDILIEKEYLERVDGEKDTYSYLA
Sequence of APC11/APC2 (Q9NYG5 whole entry): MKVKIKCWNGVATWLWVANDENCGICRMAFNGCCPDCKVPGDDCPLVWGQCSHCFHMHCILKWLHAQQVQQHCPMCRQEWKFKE
Sequence of APC11/APC2 (Q9UJX6 whole entry): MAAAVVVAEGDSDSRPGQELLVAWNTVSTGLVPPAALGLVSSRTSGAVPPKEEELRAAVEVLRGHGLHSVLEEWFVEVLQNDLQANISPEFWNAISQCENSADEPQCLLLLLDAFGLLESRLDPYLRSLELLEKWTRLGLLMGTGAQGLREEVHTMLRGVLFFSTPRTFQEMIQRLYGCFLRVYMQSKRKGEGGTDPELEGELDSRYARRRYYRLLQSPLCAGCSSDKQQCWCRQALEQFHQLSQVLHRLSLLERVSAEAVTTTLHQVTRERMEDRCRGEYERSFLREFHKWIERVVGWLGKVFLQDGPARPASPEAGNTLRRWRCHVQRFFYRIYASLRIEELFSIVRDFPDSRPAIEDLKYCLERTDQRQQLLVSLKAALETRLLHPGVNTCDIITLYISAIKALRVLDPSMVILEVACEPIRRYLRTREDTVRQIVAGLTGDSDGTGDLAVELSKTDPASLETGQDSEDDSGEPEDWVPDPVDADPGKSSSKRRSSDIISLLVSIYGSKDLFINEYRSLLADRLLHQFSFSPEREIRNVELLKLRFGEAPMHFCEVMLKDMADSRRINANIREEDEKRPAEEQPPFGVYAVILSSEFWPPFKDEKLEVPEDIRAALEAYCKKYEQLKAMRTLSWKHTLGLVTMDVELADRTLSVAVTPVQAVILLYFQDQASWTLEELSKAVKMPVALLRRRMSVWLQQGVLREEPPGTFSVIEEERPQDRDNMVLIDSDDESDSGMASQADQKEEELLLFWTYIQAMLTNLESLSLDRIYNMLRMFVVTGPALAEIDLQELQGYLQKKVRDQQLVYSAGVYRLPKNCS

With `O=[N+]([O-])c1ccc(Sc2ccc3ccccc3n2)c2nonc12` [compound 238, 2-[(7-nitro-2,1,3-benzoxadiazol-4-yl)thio]quinoline], the IC50 on TRAF6/Uev1A/Ubc13 was 1 to 20 µM; in test [1], at least 20 µM; on ROC1/CUL1 it was at least 20 µM.

For `COc1ccc(Cl)cc1NS(=O)(=O)c1ccc(Cl)c2nonc12` [compound 269, 7-chloro-N-(5-chloro-2-methoxyphenyl)-2,1,3-benzoxadiazole-4-sulfonamide], the results for the IC50 (at TRAF6/Uev1A/Ubc13; in test [1]; at ROC1/CUL1) were 1 to 20 µM, at least 20 µM and at least 20 µM, respectively.

In the case of `Cc1ccc(N2CCN(S(=O)(=O)c3c(N4CCN(c5cccc(C)n5)CC4)ccc4nonc34)CC2)nc1` [compound 203, 5-[4-(6-methylpyridin-2-yl)piperazin-1-yl]-4-{[4-(5-methylpyridin-2-yl)piperazin-1-yl]sulfonyl}-2,1,3-benzoxadiazole], the values for the IC50 (on TRAF6/Uev1A/Ubc13; in test [1]; against ROC1/CUL1) were 1 to 20 µM, at least 20 µM and at least 20 µM, respectively.

For `COC(=O)c1ccc(NS(=O)(=O)c2c(Sc3cccc4cccnc34)ccc3nonc23)cc1` [compound 215, methyl 4-({[5-(quinolin-8-ylthio)-2,1,3-benzoxadiazol-4-yl]sulfonyl}amino)benzoate], the IC50 was 1 to 20 µM against TRAF6/Uev1A/Ubc13, at least 20 µM in test [1] and at least 20 µM against ROC1/CUL1.

With `O=C(Nc1cccc2nonc12)C1CN(c2ncccc2Cl)C1` [compound 486, N-(2,1,3-benzoxadiazol-4-yl)-1-(3-chloropyridin-2-yl) azetidine-3-carboxamide], the IC50 at TRAF6/Uev1A/Ubc13, on APC11/APC2 and on ROC1/CUL1 was 1 to 20 µM in each case.

As for `CN1CCN(S(=O)(=O)c2ccc(Sc3ccc4ccccc4n3)c3nonc23)CC1` [compound 268, 2-({7-[(4-methylpiperazin-1-yl)sulfonyl]-2,1,3-benzoxadiazol-4-yl}thio)quinoline], the IC50 (against TRAF6/Uev1A/Ubc13; in test [1]; at ROC1/CUL1) was at least 20 µM each time.

Turning to `O=S(=O)(Nc1ccncc1)c1ccc2nonc2c1` [compound 26, N-pyridin-4-yl-2,1,3-benzoxadiazole-5-sulfonamide], the IC50 in the test with A549 cells, in the test with H1299 cells, with OVCAR8 cells and with UACC-257 cells was at least 20 µM each time.

As to `CC1CC(C)CN(c2ccc(S(=O)(=O)N3CC(C)CC(C)C3)c3nonc23)C1` (stereo not drawn) [compound 193, 4-(3,5-dimethylpiperidin-1-yl)-7-[(3,5-dimethylpiperidin-1-yl)sulfonyl]-2,1,3-benzoxadiazole], the IC50 against TRAF6/Uev1A/Ubc13, at APC11/APC2 and against ROC1/CUL1 was 1 to 20 µM in each case.

Regarding `N#Cc1ccc(N2CCN(c3ccc4nonc4c3S(=O)(=O)N3CCN(c4ccc(C#N)cn4)CC3)CC2)nc1` [compound 210, 6-[4-({5-[4-(5-cyanopyridin-2-yl)piperazin-1-yl]-2,1,3-benzoxadiazol-4-yl}sulfonyl)piperazin-1-yl]nicotinonitrile], the IC50 against TRAF6/Uev1A/Ubc13 was at least 20 µM; at ROC1/CUL1, at least 20 µM; with A549 cells, at least 20 µM; in the test with H1299 cells, 1 to 20 µM.

`Cc1cccc(N2CCN(S(=O)(=O)c3ccc(Sc4cccc5cccnc45)c4nonc34)CC2)n1` [compound 196, 8-[(7-{[4-(6-methylpyndin-2-yl)piperazin-1-yl]sulfonyl}-2,1,3-benzoxadiazol-4-yl)thio]quinoline]: the IC50 on TRAF6/Uev1A/Ubc13 is 1 to 20 µM; at ROC1/CUL1 it was at least 20 µM; in the test with A549 cells it was at least 20 µM; with H1299 cells, at least 20 µM.
